# Legend:
# Type in all cases: in vivo, human
# [1] = test system: healthy men and women playing video games; experiment: Video game performance, Super Smash Brothers Ultimate; design: Damage Taken, Mean of visit / Damage Taken, Mean ± SD: unit not given here; settings: 200 mg daily; for Damage Taken, Mean ± SD / Falls (Deaths), Mean ± SD / Hit Percentage, Mean ± SD / Damage Taken, Mean of visit / Falls (Deaths), Mean of visit / Hit Percentage, Mean of visit: n = 5; for Damage Taken, Mean of visit / Falls (Deaths), Mean of visit / Hit Percentage, Mean of visit: mean of 20-120 min; for Damage Taken, Δ Baseline / Falls (Deaths), Δ Baseline: versus baseline; for Damage Taken, Δ PLA / Falls (Deaths), Δ PLA: versus placebo
# Description: The effectiveness of study-products (paraxanthine and placebo) was assessed by measuring in-game performance, cognition during gaming (Stroop Test) and mood status during gaming (Profile of Mood States (POMS)). All study participants played the game Super Smash Brothers Ultimate (Nintendo, Release date: Dec. 7, 2018). Each study participant arrived, completed all necessary testing and began playing the game. Game consoles and controllers were available, but if participants wanted to bring their own controller, they were allowed to do so. The game was be set to the same level and strategy for each player. During each session, study participants played the game for 60 minutes and took a break to complete the Stroop Test and POMS. Participants then played the game for an additional 60 minutes before completing their third tests. […]
# healthy subject = experiment: Arcade video game GALAGA, game score; settings: 300 mg prior to playing GALAGA; one subject
# From the text: Each of the three game sessions were separated by a one-week washout period. In […], the player mans a lone […] bottom of the screen, which must prevent the […] forces from destroying all of mankind. The objective of each stage is to defeat all of the […] aliens, which will fly into formation from the top and sides of the screen.
# [2] = test system: healthy men and women playing video games; experiment: Stroop Color and Word Test during gaming; settings: 200 mg daily
# Description: The effectiveness of study-products (paraxanthine and placebo) was assessed by measuring in-game performance, cognition during gaming (Stroop Test) and mood status during gaming (Profile of Mood States (POMS)). The Stroop Color and Word Test (SCWT) was administered after 0, 3, and 6 six weeks of supplementation to assess cognitive performance during gaming throughout the study protocol. The Stroop Test was completed pre-dose, after 60 minutes of gaming and immediately after completing 120 minutes of video gaming during all study visits. The SCWT is a neuropsychological test that follows the procedures of Stroop (Stroop 1935). Briefly, the SCWT (with congruency) was administered for five continuous minutes via an online software application. One of four words (red, yellow, green, blue) appeared at random, until a selection was made, then a new word appeared at random. Subjects selected the response which matches the color of the ink of the randomly selected word (not the color that the word described). The number of correct answers served as the basis of a total Stroop score.
# [3] = gaming between 100 and 120 minutes of play
compound,measurement,setting,value
"Cn1c(=O)[nH]c2ncn(C)c2c1=O [Paraxanthine, paraxanthine]","Damage Taken, Mean ± SD","[1]; 3 weeks, 20 min",870.00 ± 301.09
same,"Falls (Deaths), Mean ± SD","[1]; 3 weeks, 20 min",5.75 ± 2.63
same,"Hit Percentage, Mean ± SD","[1]; 3 weeks, 20 min",37.75 ± 9.64
same,"Damage Taken, Mean ± SD","[1]; 3 weeks, 40 min",1103.00 ± 253.95
same,"Falls (Deaths), Mean ± SD","[1]; 3 weeks, 40 min",8 ± 3.67
same,"Hit Percentage, Mean ± SD","[1]; 3 weeks, 40 min",35.8 ± 8.93
same,"Damage Taken, Mean ± SD","[1]; 3 weeks, 60 min",987.25 ± 396.60
same,"Falls (Deaths), Mean ± SD","[1]; 3 weeks, 60 min",7 ± 3.83
same,"Hit Percentage, Mean ± SD","[1]; 3 weeks, 60 min",38 ± 5.72
same,"Damage Taken, Mean ± SD","[1]; 3 weeks, 80 min",1351.80 ± 341.08
same,"Falls (Deaths), Mean ± SD","[1]; 3 weeks, 80 min",9 ± 3.32
same,"Hit Percentage, Mean ± SD","[1]; 3 weeks, 80 min",35.2 ± 8.17
same,"Damage Taken, Mean ± SD","[1]; 3 weeks, 100 min",1619.60 ± 383.27
same,"Falls (Deaths), Mean ± SD","[1]; 3 weeks, 100 min",11.4 ± 4.04
same,"Hit Percentage, Mean ± SD","[1]; 3 weeks, 100 min",29.4 ± 8.08
same,"Damage Taken, Mean ± SD","[1]; 3 weeks, 120 min",2006.60 ± 376.34
same,"Falls (Deaths), Mean ± SD","[1]; 3 weeks, 120 min",13 ± 3.74
same,"Hit Percentage, Mean ± SD","[1]; 3 weeks, 120 min",26.4 ± 3.51
same,"Damage Taken, Mean of visit",[1]; 3 weeks,"1,323.0"
same,"Falls (Deaths), Mean of visit",[1]; 3 weeks,9.0
same,"Hit Percentage, Mean of visit",[1]; 3 weeks,33.8
same,"Damage Taken, Mean ± SD","[1]; 6 weeks, 20 min",723.62 ± 457.07
same,"Falls (Deaths), Mean ± SD","[1]; 6 weeks, 20 min",5.2 ± 1.92
same,"Hit Percentage, Mean ± SD","[1]; 6 weeks, 20 min",28.09 ± 16.43
same,"Damage Taken, Mean ± SD","[1]; 6 weeks, 40 min",1077.40 ± 258.42
same,"Falls (Deaths), Mean ± SD","[1]; 6 weeks, 40 min",8 ± 2.74
same,"Hit Percentage, Mean ± SD","[1]; 6 weeks, 40 min",42.2 ± 12.46
same,"Damage Taken, Mean ± SD","[1]; 6 weeks, 60 min",1182.80 ± 317.56
same,"Falls (Deaths), Mean ± SD","[1]; 6 weeks, 60 min",7.4 ± 2.7
same,"Hit Percentage, Mean ± SD","[1]; 6 weeks, 60 min",39.4 ± 6.88
same,"Damage Taken, Mean ± SD","[1]; 6 weeks, 80 min",1425.80 ± 173.33
same,"Falls (Deaths), Mean ± SD","[1]; 6 weeks, 80 min",10 ± 2.55
same,"Hit Percentage, Mean ± SD","[1]; 6 weeks, 80 min",33 ± 5.43
same,"Damage Taken, Mean ± SD","[1]; 6 weeks, 100 min",1697.60 ± 336.71
same,"Falls (Deaths), Mean ± SD","[1]; 6 weeks, 100 min",13.2 ± 2.59
same,"Hit Percentage, Mean ± SD","[1]; 6 weeks, 100 min",30.4 ± 4.98
same,"Damage Taken, Mean ± SD","[1]; 6 weeks, 120 min",1921.80 ± 379.30
same,"Falls (Deaths), Mean ± SD","[1]; 6 weeks, 120 min",14.2 ± 3.56
same,"Hit Percentage, Mean ± SD","[1]; 6 weeks, 120 min",27.2 ± 4.15
same,"Damage Taken, Mean of visit",[1]; 6 weeks,"1,338.2"
same,"Falls (Deaths), Mean of visit",[1]; 6 weeks,9.7
same,"Hit Percentage, Mean of visit",[1]; 6 weeks,33.4
same,"Damage Taken, Mean ± SD","[1]; Baseline visit, 20 min",981.20 ± 457.06
same,"Falls (Deaths), Mean ± SD","[1]; Baseline visit, 20 min",7 ± 3.54
same,"Hit Percentage, Mean ± SD","[1]; Baseline visit, 20 min",36.6 ± 11.13
same,"Damage Taken, Mean ± SD","[1]; Baseline visit, 40 min",1306.75 ± 553.65
same,"Falls (Deaths), Mean ± SD","[1]; Baseline visit, 40 min",10.5 ± 5.26
same,"Hit Percentage, Mean ± SD","[1]; Baseline visit, 40 min",30.25 ± 11.15
same,"Damage Taken, Mean ± SD","[1]; Baseline visit, 60 min",1207.60 ± 425.74
same,"Falls (Deaths), Mean ± SD","[1]; Baseline visit, 60 min",8 ± 3.39
same,"Hit Percentage, Mean ± SD","[1]; Baseline visit, 60 min",34.6 ± 9.92
same,"Damage Taken, Mean ± SD","[1]; Baseline visit, 80 min",1527.80 ± 541.49
same,"Falls (Deaths), Mean ± SD","[1]; Baseline visit, 80 min",10.8 ± 4.97
same,"Hit Percentage, Mean ± SD","[1]; Baseline visit, 80 min",34.2 ± 8.23
same,"Damage Taken, Mean ± SD","[1]; Baseline visit, 100 min",1647.20 ± 359.67
same,"Falls (Deaths), Mean ± SD","[1]; Baseline visit, 100 min",11 ± 3.08
same,"Hit Percentage, Mean ± SD","[1]; Baseline visit, 100 min",30.6 ± 5.98
same,"Damage Taken, Mean ± SD","[1]; Baseline visit, 120 min",2067.80 ± 803.18
same,"Falls (Deaths), Mean ± SD","[1]; Baseline visit, 120 min",16.6 ± 8.59
same,"Hit Percentage, Mean ± SD","[1]; Baseline visit, 120 min",24.4 ± 4.28
same,"Damage Taken, Mean of visit",[1]; Baseline visit,"1,460.9"
same,"Falls (Deaths), Mean of visit",[1]; Baseline visit,10.65
same,"Hit Percentage, Mean of visit",[1]; Baseline visit,31.7
same,"Damage Taken, Δ Baseline",[1]; 3 weeks,−9.4%
same,"Falls (Deaths), Δ Baseline",[1]; 3 weeks,−15.5%
same,"Damage Taken, Δ PLA",[1]; 3 weeks,−9.5%
same,"Falls (Deaths), Δ PLA",[1]; 3 weeks,−21.7%
same,"Damage Taken, Δ Baseline",[1]; 6 weeks,−8.4%
same,"Falls (Deaths), Δ Baseline",[1]; 6 weeks,−8.9%
same,"Damage Taken, Δ PLA",[1]; 6 weeks,−14.0%
same,"Falls (Deaths), Δ PLA",[1]; 6 weeks,−15.6%
same,reduction of own damage taken compared to baseline (prior to supplementation),[1]; after 3 weeks,9.4%
same,reduction of own damage taken compared to placebo,[1]; after 3 weeks,9.5%
same,reduction of own deaths compared to baseline (prior to supplementation),[1]; after 3 weeks,15.5%
same,reduction of own deaths compared to placebo,[1]; after 3 weeks,21.7%
same,"improvement over placebo, damage taken, later stages of gaming",[1]; [3],30.9%
same,"improvement over placebo, number of deaths, later stages of gaming",[1]; [3],34%
same,average score over 5 games,healthy subject,"118,702"
same,change of average score compared to placebo,healthy subject,+79.4%
same,change of personal best compared to placebo,healthy subject,+86.6%
same,personal best (high score) of the 5 games,healthy subject,"161,070"
same,increase in cognitive performance (Stroop test score) compared to baseline,"[2]; 3 weeks, after one hour of gaming",39%
same,increase in cognitive performance (Stroop test score) compared to baseline,"[2]; 3 weeks, after two hours of gaming",89%
same,increase in cognitive performance (Stroop test score) compared to baseline,"[2]; 3 weeks, pre-gaming",25%
same,increase in cognitive performance (Stroop test score) compared to baseline,"[2]; 6 weeks, after one hour of gaming",89%
same,increase in cognitive performance (Stroop test score) compared to baseline,"[2]; 6 weeks, after two hours of gaming",119%
same,increase in cognitive performance (Stroop test score) compared to baseline,"[2]; 6 weeks, pre-gaming",25%
same,habituation,[2]; even after 6 weeks,No habituation was observed

# — patent US20220331327A1, “THE USE OF PARAXANTHINE TO IMPROVE PERFORMANCE IN VIDEO GAMERS” (priority 2021, published 2022)
